Source: patent publication US12636290B2, “BET inhibitors for modulating DUX4 expression in FSHD” (Saint Louis University, priority 2018, dated 2026)
Read-outs that look alike come from different tables or passages of the source.

Tested on: DUX4 expression (surrogate marker MBD3L2)
Experiment: Screening: qPCR analysis of DUX4 target gene MBD3L2 in differentiating MB200 FSHD2 muscle cells
Assay type: cell-based
Settings: Homo sapiens, 40 hours, DUX4 expression inferred from surrogate marker MBD3L2 expression (qPCR, normalized to RPL30)
Experimental: Cells and Cell Culture. Primary human myoblast cell lines, immortalized by retroviral transduction of cyclin-dependent kinase 4 (CDK4) and human telomerase reverse transcriptase (hTERT) (Stadler, et al., 2011), were obtained from the Fields Center at the University of Rochester (world-wide-web at urmc.rochester.edu/fields-center.aspx). Immortalized myoblasts were grown in Ham's F-10 Nutrient Mix (Gibco, Waltham, MA, USA) supplemented with 20% HyClone Fetal Bovine Serum (GE Healthcare Life Sciences, Pittsburgh, PA, USA), 100 U/100 μg penicillin/streptomycin (Gibco), 10 ng/ml recombinant human fibroblast growth factor (Promega Corporation, Madison, WI, USA) and 1 μM dexamethasone (Sigma-Aldrich). Differentiation of myoblasts into myotubes was achieved by switching the fully confluent myoblast monolayer into Dulbecco's Modified Eagle Medium (DMEM) (Gibco) containing 1% horse serum (Gibco), 100 U/100 μg penicillin/streptomycin, 10 μg/ml insulin (Sigma-Aldrich) and 10 μg/ml transferrin (Sigma-Aldrich) (HS/IT media) or DMEM:F12 Nutrient Mixture (1:1, Gibco) supplemented with 2% KnockOut Serum Replacement (Gibco), 100 U/100 μg penicillin/streptomycin, 10 μg/ml insulin and 10 μg/ml transferrin (KSR media) for 2-6 days.
Screening: qPCR analysis of DUX4 target genes MBD3L2. For screening compounds, differentiating MB200 FSHD2 muscle cells were exposed to BET inhibitors at a variety of concentrations for 40 hours to determine the effects of the drugs on DUX4 expression. Cell lysates were prepared using Cells-to-Ct Bulk Lysis Reagents (Invitrogen, Waltham, MA, USA). Gene expression was measured by quantitative polymerase chain reaction (qPCR) was carried out on a QuantStudio 5 (Applied Biosystems, Waltham, MA, USA) using TaqMan Gene Expression Assays (Applied Biosystems) and TaqMan Fast Virus 1-Step Master Mix (Invitrogen). The relative expression levels of DUX4 target gene methyl-CpG binding domain protein 3 like 2 (MBD3L2), was normalized to that of the reference gene ribosomal protein L30 (RPL30), which was included in multiplex (two gene) PCR reactions. TaqMan Gene Expression Assay ID numbers: MBD3L2, Hs00544743_m1; RPL30, Hs00265497_m1. Data is expressed as relative expression with the expression in absence of inhibitors set to one.
Analysis of MBD3L2 expression in cultured FSHD2 cells. DUX4 mRNA is present in very low levels, even in differentiating FSHD2 myoblasts, so DUX4 target gene MBD3L2 was used as a surrogate marker of DUX4 expression. FSHD2 patient derived muscle cells were analyzed to determine whether BET inhibitors affect MBD3L2 expression, indicating a reduction in DUX4 expression.

Question: Which IC50 (read-out: DUX4* MT FSHD2: IC50) does the source give for `CC(=O)N1C[C@@H](C)N(CCOc2ccc(-c3ccc4nc(-c5cn(C)c(=O)c6[nH]ccc56)ccc4c3)cc2)[C@@H](C)C1` [SLU-2104, 4-{6-[4-(2-((2R,6S)-4-acetyl-2,6-dimethylpiperazin-1-yl)ethoxy)phenyl]quinolin-2-yl}-6-methyl-1H-pyrrolo[2,3-c]pyridin-7(6H)-one] here?
Answer: 43 nM

Question: What about the IC50 (read-out: DUX4* MT FSHD2 IC50) of the same compound?
Answer: 43 nM

Question: Which IC50 (read-out: DUX4* MT FSHD2: IC50) does the source give for `Cn1cc(-c2ccc(N3CCC4(CCNCC4)C3)nc2)c2cc[nH]c2c1=O` [SLU-2214, 4-[6-(2,8-diazaspiro[4.5]decan-2-yl)pyridin-3-yl]-6-methyl-1H-pyrrolo[2,3-c]pyridin-7(6H)-one] here?
Answer: 95 nM

Question: And the IC50 (read-out: DUX4* MT FSHD2 IC50)?
Answer: 95 nM

Question: `COc1cc(N2CCC(c3ccc(OCCN4[C@H](C)CN(C(C)=O)C[C@@H]4C)cc3)CC2)ncc1-c1cn(C)c(=O)c2[nH]ccc12` [SLU-2117, 4-{6-[4-(4-(2-((2R,6S)-4-acetyl-2,6-dimethylpiperazin-1-yl)ethoxy)phenyl)piperidin-1-yl]-4-methoxypyridin-3-yl}-6-methyl-1H-pyrrolo[2,3-c]pyridin-7(6H)-one] was tested. Which IC50 (read-out: DUX4* MT FSHD2: IC50) did it give?
Answer: 91 nM

Question: And the IC50 (read-out: DUX4* MT FSHD2 IC50)?
Answer: 91 nM

Question: Which results are given for `C=CCn1cc(-c2ccc3nc(-c4ccc(OCCN5CCN(C)C(=O)[C@H]5C)cc4)ccc3c2)c2cc[nH]c2c1=O` [SLU-2293, (R)-6-allyl-4-{2-[4-(2-(2,4-dimethyl-3-oxopiperazin-1-yl)ethoxy)phenyl]quinolin-6-yl}-1H-pyrrolo[2,3-c]pyridin-7(6H)-one]?
Answer: IC50 (read-out: DUX4* MT FSHD2: IC50): 18 nM; IC50 (read-out: DUX4* MT FSHD2 IC50): 18 nM

Question: `C[C@@H]1C(=O)N(C)CCN1CCCOc1cccc(-c2ccc3cc(-c4cn(C)c(=O)c5[nH]ccc45)ccc3n2)c1` [SLU-2292, (R)-4-{2-[3-(3-(2,4-dimethyl-3-oxopiperazin-1-yl)propoxy)phenyl]quinolin-6-yl}-6-methyl-1H-pyrrolo[2,3-c]pyridin-7(6H)-one] was tested. Which IC50 (read-out: DUX4* MT FSHD2: IC50) did it give?
Answer: 25 nM

Question: What about the IC50 (read-out: DUX4* MT FSHD2 IC50) of the same compound?
Answer: 25 nM

Question: With `CCN1CCN(CCOc2ccc(-c3ccc4cc(-c5cn(C)c(=O)c6[nH]ccc56)ccc4n3)cc2)CC1=O` [SLU-2243, 4-{2-[4-(2-(4-ethyl-3-oxopiperazin-1-yl)ethoxy)phenyl]quinolin-6-yl}-6-methyl-1H-pyrrolo[2,3-c]pyridin-7(6H)-one] as the compound, how does the IC50 (read-out: DUX4* MT FSHD2: IC50) read?
Answer: 110 nM

Question: And the IC50 (read-out: DUX4* MT FSHD2 IC50)?
Answer: 110 nM

Question: Which results are given for `Cn1cc(-c2ccc3ncccc3c2)c2cc[nH]c2c1=O` [SLU-2298, 6-methyl-4-(quinolin-6-yl)-1H-pyrrolo[2,3-c]pyridin-7(6H)-one]?
Answer: IC50 (read-out: DUX4* MT FSHD2: IC50): 113 nM; IC50 (read-out: DUX4* MT FSHD2 IC50): 113 nM

Question: Which results are given for `CN1CCN(CCOc2ccc(C3CCN(c4ccc(-c5cn(C)c(=O)c6[nH]ccc56)cn4)CC3)cc2)CC1` [SLU-2114, 6-methyl-4-{6-[4-(4-(2-(4-methylpiperazin-1-yl)ethoxy)phenyl)piperidin-1-yl]pyridin-3-yl}-1H-pyrrolo[2,3-c]pyridin-7(6H)-one]?
Answer: IC50 (read-out: DUX4* MT FSHD2: IC50): 330 nM; IC50 (read-out: DUX4* MT FSHD2 IC50): 330 nM

Question: How did the IC50 (read-out: DUX4* MT FSHD2: IC50) turn out when `Cn1cc(-c2ccc(N3CCC(c4ccc(OCCn5cncn5)cc4)CC3)nc2)c2cc[nH]c2c1=O` [SLU-2119, 4-{6-[4-(4-(2-(1H-1,2,4-triazol-1-yl)ethoxy)phenyl)piperidin-1-yl]pyridin-3-yl}-6-methyl-1H-pyrrolo[2,3-c]pyridin-7(6H)-one] was run?
Answer: 130 nM

Question: And the IC50 (read-out: DUX4* MT FSHD2 IC50)?
Answer: 130 nM

Question: Which results are given for `C[C@@H]1C(=O)N(C)CCN1CCOc1ccc(-c2cc3ccc(-c4cn(C)c(=O)c5[nH]ccc45)cc3cn2)cc1` [SLU-2217, (R)-4-{3-[4-(2-(2,4-dimethyl-3-oxopiperazin-1-yl)ethoxy)phenyl]isoquinolin-7-yl}-6-methyl-1H-pyrrolo[2,3-c]pyridin-7(6H)-one]?
Answer: IC50 (read-out: DUX4* MT FSHD2: IC50): 22 nM; IC50 (read-out: DUX4* MT FSHD2 IC50): 22 nM

Question: For `C[C@@H]1C(=O)N(C)CCN1CCOc1ccc(-c2ccc3nc(-c4cn(C)c(=O)c5[nH]ccc45)ccc3c2)nc1` [SLU-2213], which IC50 (read-out: DUX4* MT FSHD2: IC50) is on record?
Answer: 41 nM

Question: And the IC50 (read-out: DUX4* MT FSHD2 IC50)?
Answer: 41 nM

Question: For `C[C@@H]1C(=O)N(C)CCN1CCCOc1ccc(-c2ccc3cc(-c4cn(C)c(=O)c5[nH]ccc45)ccc3n2)cc1` [SLU-2299, (R)-4-{2-[4-(3-(2,4-dimethyl-3-oxopiperazin-1-yl)propoxy)phenyl]quinolin-6-yl}-6-methyl-1H-pyrrolo[2,3-c]pyridin-7(6H)-one], which IC50 (read-out: DUX4* MT FSHD2: IC50) is on record?
Answer: 3.4 nM

Question: And the IC50 (read-out: DUX4* MT FSHD2 IC50)?
Answer: 3.4 nM

Question: With `CCn1cc(-c2ccc3nc(-c4ccc(OCCN5CCN(C)C(=O)[C@H]5C)cc4)ccc3c2)c2cc[nH]c2c1=O` [SLU-2296, (R)-4-{2-[4-(2-(2,4-dimethyl-3-oxopiperazin-1-yl)ethoxy)phenyl]quinolin-6-yl}-6-ethyl-1H-pyrrolo[2,3-c]pyridin-7(6H)-one] as the compound, how does the IC50 (read-out: DUX4* MT FSHD2: IC50) read?
Answer: 58 nM

Question: What about the IC50 (read-out: DUX4* MT FSHD2 IC50) of the same compound?
Answer: 58 nM

Question: Which results are given for `Cn1cc(-c2ccc(N3CCC4(CCN(C(=O)CO)CC4)CC3)nc2)c2cc[nH]c2c1=O` [SLU-2115, 4-{6-[9-(2-hydroxyacetyl)-3,9-diazaspiro[5.5]undecan-3-yl]pyridin-3-yl}-6-methyl-1H-pyrrolo[2,3-c]pyridin-7(6H)-one]?
Answer: IC50 (read-out: DUX4* MT FSHD2: IC50): 97 nM; IC50 (read-out: DUX4* MT FSHD2 IC50): 97 nM

Question: Which results are given for `Cn1cc(-c2ccc(N3CCC(c4ccc(OCCN5CCOCC5)cc4)CC3)nc2)c2cc[nH]c2c1=O` [SLU-2118, 6-methyl-4-{6-[4-(4-(2-morpholinoethoxy)phenyl)piperidin-1-yl]pyridin-3-yl}-1H-pyrrolo[2,3-c]pyridin-7(6H)-one]?
Answer: IC50 (read-out: DUX4* MT FSHD2: IC50): 261 nM; IC50 (read-out: DUX4* MT FSHD2 IC50): 261 nM

Question: What does the source list for `C[C@H]1C(=O)N(C)CCN1CCOc1ccc(-c2ccc3cc(-c4cn(C)c(=O)c5[nH]ccc45)ccc3n2)cc1` [SLU-2236, (S)-4-{2-[4-(2-(2,4-dimethyl-3-oxopiperazin-1-yl)ethoxy)phenyl]quinolin-6-yl}-6-methyl-1H-pyrrolo[2,3-c]pyridin-7(6H)-one]?
Answer: IC50 (read-out: DUX4* MT FSHD2: IC50): 13 nM; IC50 (read-out: DUX4* MT FSHD2 IC50): 13 nM

Question: Which results are given for `C[C@@H]1C(=O)N(C)CCN1CCOc1ccc(C2CCN(c3ncc(-c4cn(C)c(=O)c5[nH]ccc45)cn3)CC2)cc1` [SLU-2091, (R)-4-{2-[4-(4-(2-(2,4-dimethyl-3-oxopiperazin-1-yl)ethoxy)phenyl)piperidin-1-yl]pyrimidin-5-yl}-6-methyl-1H-pyrrolo[2,3-c]pyridin-7(6H)-one]?
Answer: IC50 (read-out: DUX4* MT FSHD2: IC50): 20 nM; IC50 (read-out: DUX4* MT FSHD2 IC50): 20 nM

Question: What does the source list for `COc1cc(-c2ccc(OCCN3CCN(C)C(=O)[C@H]3C)cc2)ccc1-c1cn(C)c(=O)c2[nH]ccc12` [SLU-2102, (R)-4-{4′-[2-(2,4-dimethyl-3-oxopiperazin-1-yl)ethoxy]-3-methoxy-[1,1′-biphenyl]-4-yl}-6-methyl-1H-pyrrolo[2,3-c]pyridin-7(6H)-one]?
Answer: IC50 (read-out: DUX4* MT FSHD2: IC50): 130 nM; IC50 (read-out: DUX4* MT FSHD2 IC50): 130 nM

Question: What does the source list for `C[C@@H]1C(=O)N(C)CCN1CCOc1ccc(C#Cc2ccc(-c3cn(C)c(=O)c4[nH]ccc34)cc2)cc1` [SLU-2226, (R)-4-{4-[(4-(2-(2,4-dimethyl-3-oxopiperazin-1-yl)ethoxy)phenyl)ethynyl]phenyl}-6-methyl-1H-pyrrolo[2,3-c]pyridin-7(6H)-one]?
Answer: IC50 (read-out: DUX4* MT FSHD2: IC50): 47 nM; IC50 (read-out: DUX4* MT FSHD2 IC50): 47 nM

Question: `C[C@@H]1CN(C)C(=O)CN1CCOc1ccc(-c2ccc3cc(-c4cn(C)c(=O)c5[nH]ccc45)ccc3n2)cc1` [SLU-2286, (R)-4-{2-[4-(2-(2,4-dimethyl-5-oxopiperazin-1-yl)ethoxy)phenyl]quinolin-6-yl}-6-methyl-1H-pyrrolo[2,3-c]pyridin-7(6H)-one] was tested. Which IC50 (read-out: DUX4* MT FSHD2: IC50) did it give?
Answer: 63 nM

Question: What about the IC50 (read-out: DUX4* MT FSHD2 IC50) of the same compound?
Answer: 63 nM

Question: What does the source list for `COc1cc(N2CCC(c3ccc(OCCN4CCN(C)C(=O)[C@H]4C)cc3)CC2)ncc1-c1cn(C)c(=O)c2[nH]ccc12` [SLU-2111, (R)-4-{6-[4-(4-(2-(2,4-dimethyl-3-oxopiperazin-1-yl)ethoxy)phenyl)piperidin-1-yl]-4-methoxypyridin-3-yl}-6-methyl-1,6-dihydro-7H-pyrrolo[2,3-c]pyridin-7-one]?
Answer: IC50 (read-out: DUX4* MT FSHD2: IC50): 29 nM; IC50 (read-out: DUX4* MT FSHD2 IC50): 29 nM

Question: With `C[C@@H]1C(=O)N(C)CCN1CCOc1ccc(-c2ccc(-c3cn(C)c(=O)c4[nH]ccc34)cc2)cc1` [SLU-2097, (R)-4-{4′-[2-(2,4-dimethyl-3-oxopiperazin-1-yl)ethoxy]-[1,1′-biphenyl]-4-yl}-6-methyl-1H-pyrrolo[2,3-c]pyridin-7(6H)-one] as the compound, how does the IC50 (read-out: DUX4* MT FSHD2: IC50) read?
Answer: 120 nM

Question: And the IC50 (read-out: DUX4* MT FSHD2 IC50)?
Answer: 120 nM

Question: For `C[C@@H]1C(=O)N(C)CCN1CCOc1ccc2nc(-c3ccc(-c4cn(C)c(=O)c5[nH]ccc45)cc3)ccc2c1` [SLU-2211, (R)-4-{4-[6-(2-(2,4-dimethyl-3-oxopiperazin-1-yl)ethoxy)quinolin-2-yl]phenyl}-6-methyl-1H-pyrrolo[2,3-c]pyridin-7(6H)-one], which IC50 (read-out: DUX4* MT FSHD2: IC50) is on record?
Answer: 62 nM

Question: What about the IC50 (read-out: DUX4* MT FSHD2 IC50) of the same compound?
Answer: 62 nM
